Measured values as given in patent US9096608B2, “Pharmaceutically active pyrazolo-triazine derivatives” (LEAD DISCOVERY CENTER GMBH, priority 2012, dated 2015).
Read-outs that look alike come from different tables or passages of the source.

What was measured:
Format in all cases: biochemical
CDK9/Cyclin T1 = biological target: T1, CDK9/Cyclin T1 (Homo sapiens, UniProt P50750); assay: CDK9 Enzymatic Activity Assay (Lance Kinase Activity Assay, FRET); conditions: for CDK9: Selectivity of CDK7 inhibition over CDK9 inhibition [fold]: Table 5B, symbols per IC50 ranges of b615
T1 construct: purchased Invitrogen
T1 sequence (P50750 whole entry): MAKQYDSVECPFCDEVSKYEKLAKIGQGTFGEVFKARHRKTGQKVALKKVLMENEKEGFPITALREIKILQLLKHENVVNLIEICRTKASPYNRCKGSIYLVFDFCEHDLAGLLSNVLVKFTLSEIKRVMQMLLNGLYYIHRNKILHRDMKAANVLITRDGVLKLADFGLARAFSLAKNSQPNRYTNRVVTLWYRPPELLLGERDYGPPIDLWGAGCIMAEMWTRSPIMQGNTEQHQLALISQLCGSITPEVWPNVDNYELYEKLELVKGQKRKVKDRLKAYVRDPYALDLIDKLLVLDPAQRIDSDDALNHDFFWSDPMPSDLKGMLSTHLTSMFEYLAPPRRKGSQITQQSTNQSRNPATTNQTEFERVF
T1 sequence (O60563 whole entry partner): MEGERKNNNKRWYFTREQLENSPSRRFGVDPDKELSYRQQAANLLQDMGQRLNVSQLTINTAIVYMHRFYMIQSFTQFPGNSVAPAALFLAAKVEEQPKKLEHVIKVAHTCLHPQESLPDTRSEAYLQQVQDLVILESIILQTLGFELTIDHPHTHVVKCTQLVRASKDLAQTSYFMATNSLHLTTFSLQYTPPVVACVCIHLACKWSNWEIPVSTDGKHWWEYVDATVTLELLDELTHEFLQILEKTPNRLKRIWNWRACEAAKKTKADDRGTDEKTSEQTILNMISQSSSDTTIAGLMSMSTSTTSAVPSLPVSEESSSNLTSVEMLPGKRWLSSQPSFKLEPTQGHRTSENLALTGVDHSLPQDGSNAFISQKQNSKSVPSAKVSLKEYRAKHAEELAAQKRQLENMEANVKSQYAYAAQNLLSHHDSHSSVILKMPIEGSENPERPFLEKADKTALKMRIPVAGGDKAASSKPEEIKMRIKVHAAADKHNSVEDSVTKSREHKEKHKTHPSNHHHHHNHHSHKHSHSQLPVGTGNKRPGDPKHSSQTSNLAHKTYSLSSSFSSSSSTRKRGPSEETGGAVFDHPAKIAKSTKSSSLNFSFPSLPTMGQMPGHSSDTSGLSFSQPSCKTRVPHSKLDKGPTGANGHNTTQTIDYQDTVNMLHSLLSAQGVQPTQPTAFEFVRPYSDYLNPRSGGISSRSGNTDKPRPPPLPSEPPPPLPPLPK
Procedure: (§1) This protocol describes how the Lance Kinase Activity Assay was performed to determine IC50 values of compounds of general formula (I) against CDK/Cyclin complexes. The principle behind this enzymatic assay is based upon the phosphorylation of the Ulight-Peptide Substrat. It is detected by using a specific EU-labeled anti-phospho peptide antibody.
(§2) Binding of an inhibitor to the kinase prevents phosphorylation of the ULlight-MBP Substrat, resulting in a loss of FRET.
CDK9 Enzymatic Activity Assay
(§3) The compounds of general formula (I) exemplary summarized in Table 1 were diluted from a 10 mM DMSO stock solution 1:10 in a total volume of 15 μl DMSO. This compound predilution was then serial diluted 1:3 over 8 steps in DMSO and briefly spun down. Each compound solution was now diluted 1:20 in Enzymatic Buffer (HEPES: 50 mM, pH: 7.5; MgCl2: 10 mM; EGTA: 1 mM; DTT: 2 mM; Tween-20: 0.01%), mixed thoroughly and spun down.
(§4) For positive controls, 2 μl of DMSO working solution were mixed with 6 μl CDK9/cyclin T1/substrate working solution and 2 μl ATP working solution. Positive and negative controls were calculated from at least 8 different wells. The 384 well plates were mixed in a Teleshaker plate mixer (Beckman Coulter, Brea, Calif., USA) at 2000 rpm for 40 sec, and incubated for 1 h at room temperature before addition of 10 μl LANCE Detection Buffer (1×; EDTA: […]; Eu-Anti-P-MBP: 4 nM) per well. Plates were mixed in a Teleshaker plate mixer (Beckman Coulter, Brea, Calif., USA) at 2000 rpm for sec, followed by incubation with Detection Buffer for 1 h, and reading. […] IC50 values were determined from the sigmoidal dose response curves with the software Quattro Workflow (Quattro GmbH, Munich, Germany).

CDK2/CycA = biological target: T2, CDK2/CycA (Homo sapiens, UniProt P24941); assay: CDK2 Enzymatic Activity Assay (Lance Kinase Activity Assay, FRET); conditions: for CDK2 IC50 range class: Table 5B, symbols per IC50 ranges of b615
T2 construct: purchased Proqinase
Procedure: as §1, §2
CDK2 Enzymatic Activity Assay
as §3
as §4, with “CDK2/CycA/substrate” for “CDK9/cyclin T1/substrate”, “(EDTA:” for “(1×; EDTA:”

CDK7/CycH/Mat1 = biological target: T3, CDK7/CycH/Mat1 (Homo sapiens, UniProt P50613); assay: CDK7 Enzymatic Activity Assay (Lance Kinase Activity Assay, FRET)
T3 construct: purchased Carna
T3 sequence (P50613 whole entry): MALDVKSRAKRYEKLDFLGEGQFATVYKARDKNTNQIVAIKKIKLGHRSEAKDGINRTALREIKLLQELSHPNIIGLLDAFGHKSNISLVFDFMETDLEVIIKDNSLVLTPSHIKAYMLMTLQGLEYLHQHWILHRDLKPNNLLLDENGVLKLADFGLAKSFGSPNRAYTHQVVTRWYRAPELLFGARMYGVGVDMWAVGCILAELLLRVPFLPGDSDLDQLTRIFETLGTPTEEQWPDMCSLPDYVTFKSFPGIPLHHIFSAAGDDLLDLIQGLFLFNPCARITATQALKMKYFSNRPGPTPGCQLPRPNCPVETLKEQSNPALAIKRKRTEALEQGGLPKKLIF
T3 sequence (P51946 whole entry partner): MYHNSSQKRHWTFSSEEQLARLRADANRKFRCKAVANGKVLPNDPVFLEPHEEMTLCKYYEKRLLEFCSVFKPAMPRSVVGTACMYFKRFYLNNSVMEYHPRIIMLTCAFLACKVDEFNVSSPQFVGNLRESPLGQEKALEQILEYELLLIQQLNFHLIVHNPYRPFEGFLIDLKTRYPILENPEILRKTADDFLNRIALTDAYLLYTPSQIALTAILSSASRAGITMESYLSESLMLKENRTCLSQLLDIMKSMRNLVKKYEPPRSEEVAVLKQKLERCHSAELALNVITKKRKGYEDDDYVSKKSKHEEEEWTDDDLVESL
T3 sequence (P51948 whole entry partner): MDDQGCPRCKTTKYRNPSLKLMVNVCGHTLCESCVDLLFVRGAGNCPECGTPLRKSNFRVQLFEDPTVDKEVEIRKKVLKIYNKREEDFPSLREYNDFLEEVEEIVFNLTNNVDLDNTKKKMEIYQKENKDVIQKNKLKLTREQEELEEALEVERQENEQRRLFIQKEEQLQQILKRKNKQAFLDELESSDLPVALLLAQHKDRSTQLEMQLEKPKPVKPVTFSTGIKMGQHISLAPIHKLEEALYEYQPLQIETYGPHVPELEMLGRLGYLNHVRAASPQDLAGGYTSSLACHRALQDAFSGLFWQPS
Procedure: as §1, §2
CDK7 Enzymatic Activity Assay
as §3
as §4, with “6 μl CDK7/CycH/Mat1/substrate working solution” for “6 μl CDK9/cyclin T1/substrate working solution”, “rpm for 40 sec, followed” for “rpm for sec, followed”

[1] = Table 5A, 25 μM ATP final, read-out: CDK7: IC50 [mM] for CDK7 inhibition (the above defined ranges apply)

## CCOc1cccc([C@H](C)Nc2nc(O[C@@H]3CCCNC3)nc3c(C(C)C)cnn23)c1 [(VII-aV), N-((S)-1-(3-ethoxyphenyl)ethyl)-8-isopropyl-2-((R)-piperidin-3-yloxy)pyrazolo[1.5-a][1,3,5]triazin-4-amine]
CDK9/Cyclin T1
  CDK9: Selectivity of CDK7 inhibition over CDK9 inhibition [fold]: +++ (IC50>2500 nM)
CDK2/CycA
  CDK2 IC50 range class: +++ (IC50>2500 nM)
CDK7/CycH/Mat1; [1]
  IC50: > 100 nM

## COc1cccc([C@H](C)Nc2nc(O[C@@H]3CCCNC3)nc3c(C(C)C)cnn23)c1OC [(VII-aX), N-((S)-1-(2,3-dimethoxy-phenyl)ethyl)-8-isopropyl-2-((R)-piperidin-3-yloxy)pyrazolo[1,5-a][1,3,5]triazin-4-amine]
CDK9/Cyclin T1
  CDK9: Selectivity of CDK7 inhibition over CDK9 inhibition [fold]: +++ (IC50>2500 nM)
CDK2/CycA
  CDK2 IC50 range class: +++ (IC50>2500 nM)
CDK7/CycH/Mat1; [1]
  IC50: < 10 nM

## COc1ccc([C@H](C)Nc2nc(OC3CCN(C)CC3)nc3c(C(C)C)cnn23)cc1 [(VII-aa), (S)-8-isopropyl-N-(1-(4-methoxyphenyl)ethyl)-2-((1-methylpiperidin-4-yl)oxy)pyrazolo[1,5-a][1,3,5]triazin-4-amine]
CDK9/Cyclin T1
  CDK9: Selectivity of CDK7 inhibition over CDK9 inhibition [fold]: +++ (IC50>2500 nM)
CDK2/CycA
  CDK2 IC50 range class: +++ (IC50>2500 nM)
CDK7/CycH/Mat1; [1]
  IC50: > 100 nM

## CC(C)c1cnn2c(N[C@H](C)c3cccc(Cl)c3)nc(OC3CCN(C)CC3)nc12 [(VII-ad), (R)-N-(1-(3-chlorophenyl)ethyl)-8-isopropyl-2-((1-methylpiperidin-4-yl)oxy)pyrazolo[1,5-a][1,3,5]triazin-4-amine]
CDK9/Cyclin T1
  CDK9: Selectivity of CDK7 inhibition over CDK9 inhibition [fold]: +++ (IC50>2500 nM)
CDK9/Cyclin T1; Table 7, lower part
  Selectivity CDK7 over CDK9 [fold]: 815 fold
CDK9/Cyclin T1; Table 7, upper part
  IC50: > 2500 nM
CDK2/CycA; Table 7, lower part
  Selectivity CDK7 over CDK2 [fold]: 968 fold
CDK2/CycA; Table 7, upper part
  IC50: > 2500 nM
CDK7/CycH/Mat1; [1]
  IC50: < 10 nM
CDK7/CycH/Mat1; Table 7, lower part, read-out: IC50 [nM] CDK7
  IC50: < 10 nM
CDK7/CycH/Mat1; Table 7, upper part, read-out: IC50 [nM] CDK7
  IC50: < 10 nM

## Cc1ccccc1[C@H](C)Nc1nc(O[C@@H]2CCCNC2)nc2c(C(C)C)cnn12 [(VII-af), 8-isopropyl-2-((R)-piperidin-3-yloxy)-N-((S)-1-(o-tolyl)ethyl)pyrazolo[1,5-a][1,3,5]triazin-4-amine]
CDK9/Cyclin T1
  CDK9: Selectivity of CDK7 inhibition over CDK9 inhibition [fold]: +++ (IC50>2500 nM)
CDK2/CycA
  CDK2 IC50 range class: +++ (IC50>2500 nM)
CDK7/CycH/Mat1; [1]
  IC50: 10 to 30 nM

## CC(C)c1cnn2c(N[C@@H](C)c3ccccc3C(F)(F)F)nc(O[C@@H]3CCCNC3)nc12 [(VII-ah), 8-isopropyl-2-((R)-piperidin-3-yloxy)-N-((S)-1-(2-(trifluoromethyl)phenyl)ethyl)pyrazolo[1,5-a][1,3,5]triazin-4-amine]
CDK9/Cyclin T1
  CDK9: Selectivity of CDK7 inhibition over CDK9 inhibition [fold]: +++ (IC50>2500 nM)
CDK2/CycA
  CDK2 IC50 range class: +++ (IC50>2500 nM)
CDK7/CycH/Mat1; [1]
  IC50: 10 to 30 nM

## CC(C)c1cnn2c(N[C@@H](C)c3cccc(Cl)c3)nc(O[C@@H]3CCCNC3)nc12 [(VII-aj), N-((S)-1-(3-chlorophenyl)ethyl)-8-isopropyl-2-((R)-piperidin-3-yloxy)pyrazolo[1,5-a][1,3,5]triazin-4-amine]
CDK9/Cyclin T1
  CDK9: Selectivity of CDK7 inhibition over CDK9 inhibition [fold]: +++ (IC50>2500 nM)
CDK2/CycA
  CDK2 IC50 range class: +++ (IC50>2500 nM)
CDK7/CycH/Mat1; [1]
  IC50: 30 to 100 nM

## CC(C)c1cnn2c(N[C@@H](C)c3cccc(F)c3)nc(O[C@@H]3CCCNC3)nc12 [(VII-ak), N-((S)-1-(3-fluorophenyl)ethyl)-8-isopropyl-2-((R)-piperidin-3-yloxy)pyrazolo[1,5-a][1,3,5]triazin-4-amine]
CDK9/Cyclin T1
  CDK9: Selectivity of CDK7 inhibition over CDK9 inhibition [fold]: +++ (IC50>2500 nM)
CDK2/CycA
  CDK2 IC50 range class: +++ (IC50>2500 nM)
CDK7/CycH/Mat1; [1]
  IC50: 30 to 100 nM

## CC(C)c1cnn2c(N[C@@H](C)c3ccc(Cl)cc3)nc(O[C@@H]3CCCNC3)nc12 [(VII-al), N-((S)-1-(4-chlorophenyl)ethyl)-8-isopropyl-2-((R)-piperidin-3-yloxy)pyrazolo[1,5-a][1,3,5]triazin-4-amine]
CDK9/Cyclin T1
  CDK9: Selectivity of CDK7 inhibition over CDK9 inhibition [fold]: +++ (IC50>2500 nM)
CDK2/CycA
  CDK2 IC50 range class: +++ (IC50>2500 nM)
CDK7/CycH/Mat1; [1]
  IC50: > 100 nM

## CC(C)c1cnn2c(N[C@@H](C)c3cccc4ccccc34)nc(O[C@@H]3CCCNC3)nc12 [(VII-am), 8-isopropyl-N-((S)-1-(naphthalen-1-yl)ethyl)-2-((R)-piperidin-3-yloxy)pyrazolo[1,5-a][1,3,5]triazin-4-amine]
CDK9/Cyclin T1
  CDK9: Selectivity of CDK7 inhibition over CDK9 inhibition [fold]: +++ (IC50>2500 nM)
CDK2/CycA
  CDK2 IC50 range class: +++ (IC50>2500 nM)
CDK7/CycH/Mat1; [1]
  IC50: 10 to 30 nM

## COc1ccc(C(C)Nc2nc(O[C@@H]3CCCNC3)nc3c(C(C)C)cnn23)cc1 (stereo partly drawn) [(VII-an), 8-isopropyl-N-(1-(4-methoxyphenyl)ethyl)-2-((R)-piperidin-3-yloxy)pyrazolo[1,5-a][1,3,5]triazin-4-amine]
CDK9/Cyclin T1
  CDK9: Selectivity of CDK7 inhibition over CDK9 inhibition [fold]: +++ (IC50>2500 nM)
CDK2/CycA
  CDK2 IC50 range class: +++ (IC50>2500 nM)
CDK7/CycH/Mat1; [1]
  IC50: > 100 nM

## CC(C)c1cnn2c(NC(C)c3ccccc3C3CC3)nc(O[C@@H]3CCCNC3)nc12 (stereo partly drawn) [(VII-ao), N-(1-(2-cyclopropyl-phenyl)ethyl)-8-isopropyl-2-((R)-piperidin-3-yloxy)pyrazolo[1,5-a][1,3,5]triazin-4-amine]
CDK9/Cyclin T1
  CDK9: Selectivity of CDK7 inhibition over CDK9 inhibition [fold]: +++ (IC50>2500 nM)
CDK2/CycA
  CDK2 IC50 range class: +++ (IC50>2500 nM)
CDK7/CycH/Mat1; [1]
  IC50: > 100 nM

## CC(C)c1cnn2c(NC(C)c3ccccc3N3CCCC3)nc(O[C@@H]3CCCNC3)nc12 (stereo partly drawn) [(VII-ap), 8-isopropyl-2-((R)-piperidin-3-yloxy)-N-(1-(2-(pyrrolidin-1-yl)phenyl)ethyl)pyrazolo[1,5-a][1,3,5]triazin-4-amine]
CDK9/Cyclin T1
  CDK9: Selectivity of CDK7 inhibition over CDK9 inhibition [fold]: +++ (IC50>2500 nM)
CDK2/CycA
  CDK2 IC50 range class: +++ (IC50>2500 nM)
CDK7/CycH/Mat1; [1]
  IC50: > 100 nM

## CC(C)c1cnn2c(NC(C)c3ccccc3N3CCCCC3)nc(O[C@@H]3CCCNC3)nc12 (stereo partly drawn) [(VII-aq), 8-isopropyl-N-(1-(2-(piperidin-1-yl)phenyl)ethyl)-2-((R)-piperidin-3-yloxy)pyrazolo[1,5-a][1,3,5]triazin-4-amine]
CDK9/Cyclin T1
  CDK9: Selectivity of CDK7 inhibition over CDK9 inhibition [fold]: +++ (IC50>2500 nM)
CDK2/CycA
  CDK2 IC50 range class: +++ (IC50>2500 nM)
CDK7/CycH/Mat1; [1]
  IC50: > 100 nM

## CC(C)c1cnn2c(N[C@H](c3ccccc3)C3CC3)nc(O[C@@H]3CCCNC3)nc12 [(VII-s), N-((S)-cyclopropyl(phenyl)methyl)-8-isopropyl-2-((R)-piperidin-3-yloxy)pyrazolo[1,5-a][1,3,5]triazin-4-amine]
CDK2/CycA
  CDK2 IC50 range class: +++ (IC50>2500 nM)
CDK7/CycH/Mat1; [1]
  IC50: 10 to 30 nM

## CC(C)c1cnn2c(N[C@@H](C)c3ccc(Cl)cc3)nc(OC3CCN(C)CC3)nc12 [(VII-y), (S)-N-(1-(4-chlorophenyl)ethyl)-8-isopropyl-2-((1-methylpiperidin-4-yl)oxy)pyrazolo[1,5-a][1,3,5]triazin-4-amine]
CDK9/Cyclin T1
  CDK9: Selectivity of CDK7 inhibition over CDK9 inhibition [fold]: +++ (IC50>2500 nM)
CDK7/CycH/Mat1; [1]
  IC50: > 100 nM

## CC(C)c1cnn2c(N[C@@H](C)c3ccccc3)nc(NC3CCNCC3)nc12 [(VIII-d), (S)-8-isopropyl-N4-(1-phenylethyl)-N2-(piperidin-4-yl)pyrazolo[1,5-a][1,3,5]triazine-2,4-diamine]
CDK2/CycA
  CDK2 IC50 range class: +++ (IC50>2500 nM)
CDK7/CycH/Mat1; [1]
  IC50: 10 to 30 nM

## COc1ccccc1[C@H](C)Nc1nc(N[C@@H]2CCCNC2)nc2c(C(C)C)cnn12 [(VIII-g), 8-isopropyl-N4-((S)-1-(2-methoxyphenyl)ethyl)-N2-((R)-piperidin-3-yl)pyrazolo[1,5-a][1,3,5]triazine-2,4-diamine]
CDK9/Cyclin T1
  CDK9: Selectivity of CDK7 inhibition over CDK9 inhibition [fold]: +++ (IC50>2500 nM)
CDK7/CycH/Mat1; [1]
  IC50: < 10 nM

## COc1cccc(CNc2nc(OC3CCN(C)CC3)nc3c(C(C)C)cnn23)c1 [C-II, reference compound]
CDK9/Cyclin T1; Table 6, CDK9 activity as multiple of CDK7 activity
  Selectivity CDK7 over CDK9 [fold]: 9 fold
CDK7/CycH/Mat1; Table 6, read-out: IC50 [nM] CDK7
  IC50: < 10 nM
